Laboratory results reported in paper PMC5524190 (Biochemistry, 2016).

Molecular target: BaIMPDHΔL
Assay type: biochemical, Bacillus anthracis
Conditions: read-out: k−7/k7, equilibrium dissociation constant of NAD+ substrate inhibition

NC(=O)c1ccc[n+]([C@@H]2O[C@H](COP(=O)([O-])OP(=O)(O)OC[C@H]3O[C@@H](n4cnc5c(N)ncnc54)[C@H](O)[C@@H]3O)[C@@H](O)[C@H]2O)c1 [NAD^+] gave a Kd of 5.5 mM.
